We go through eleven compounds from PubChem BioAssay (NCI).

Test systems include U251 CNS; CCRF-CEM leukemia; NCI-H23 lung; SK-MEL-5 melanoma; 786-0 renal; UO-31 renal; MDA-MB-435; SF-539 CNS; EKVX NSCLC; SNB-75 CNS.
Common to all, as to experiment: DTP human tumour cell line panel, 48 h

Values joined by “and” are separate entries in the source; they are usually repeats but may differ in a detail not shown here. Equal entries are not always repeated.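 Growth conditions: 96-well plates. Treatment: test compound, 48 hours, 5 concentrations. Analysis: linear interpolation between bracketing concentrations; unreached endpoints set to highest concentration. Here, GI50 denotes the concentration required for 50% inhibition of growth. TGI marks complete inhibition of growth.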 Bounds are passed on as bounds.

Consider `COc1cc(-c2nc3sc(C)cn3c2/C=C2\C(=O)Nc3ccccc32)c(Br)c(OC)c1OC`, for which the GI50 in the test on U251 CNS is 22.9 µM; in the test on CCRF-CEM leukemia it was 43.2 µM; with NCI-H23 lung it was 30.9 µM; in the test on SK-MEL-5 melanoma, 19.5 µM; in the test with 786-0 renal it was 21.6 µM; with UO-31 renal, 37.1 µM. Also, the GI50 with MDA-MB-435 was 4.88 µM; in the test on SF-539 CNS it was 19.2 µM; with EKVX NSCLC it was 39.3 µM; in the test on SNB-75 CNS, 22.2 µM. For the same compound, the TGI with U251 CNS was 54.8 µM; in the test on CCRF-CEM leukemia, above 100 µM; in the test with NCI-H23 lung, above 100 µM; in the test on SK-MEL-5 melanoma, 43.2 µM; with 786-0 renal it was 50.5 µM; in the test with UO-31 renal, above 100 µM. For the same compound, the TGI with MDA-MB-435 is 23.2 µM; in the test with SF-539 CNS it was 38.3 µM; with EKVX NSCLC, above 100 µM; in the test on SNB-75 CNS it was 51.5 µM.
Turning to `COc1ccc(CCN(CC(=O)N(CC(N)=O)C2CCC[C@@H]2OCc2ccccc2)C(=O)CN(C(=O)CN(CCc2ccc(Cl)cc2)C(=O)CN(C(=O)CN(C)Cc2ccccc2F)[C@H](C)C2CCCCC2)[C@H](C)C2CCCCC2)cc1OC` (stereo partly drawn), the GI50 in the test with U251 CNS is 1.98 µM; with CCRF-CEM leukemia, 1.66 µM; with NCI-H23 lung, 3.26 µM; in the test on SK-MEL-5 melanoma, 1.7 µM; in the test with 786-0 renal it was 2.14 µM; in the test with UO-31 renal it was 2.2 µM. Besides, the GI50 in the test on MDA-MB-435 was 1.58 µM; in the test on SF-539 CNS it was 1.43 µM; in the test on EKVX NSCLC it was 2.85 µM; in the test with SNB-75 CNS, 1.09 µM. In addition, the TGI with U251 CNS was 17.7 µM; with CCRF-CEM leukemia, 15.1 µM; in the test on NCI-H23 lung, above 50 µM; in the test on SK-MEL-5 melanoma it was 8.62 µM; in the test with 786-0 renal, above 50 µM; with UO-31 renal, above 50 µM. Further, the TGI in the test on MDA-MB-435 is above 50 µM; with SF-539 CNS it was 4.54 µM; with EKVX NSCLC it was above 50 µM; in the test with SNB-75 CNS, above 50 µM.
For `CC(C)(C)c1cc(NC(=O)Nc2ccc(-c3cn4c(n3)sc3cc(OCCN5CCOCC5)ccc34)cc2)no1`, the GI50 was 0.941 µM and 0.511 µM and 2.72 µM in the test with U251 CNS; 0.18 µM and 1.49 µM in the test on CCRF-CEM leukemia; 3.81 µM and 0.985 µM and 1.97 µM in the test on SK-MEL-5 melanoma; 2.85 µM and 0.616 µM and 4.06 µM with 786-0 renal; 3.62 µM and 0.45 µM and 3.93 µM with UO-31 renal; 6.85 µM and 4.32 µM and 7.3 µM with MDA-MB-435. For the same compound, the GI50 is 0.698 µM and 0.303 µM and 0.623 µM in the test with SF-539 CNS; 13 µM and 4.34 µM and > 10 µM in the test on EKVX NSCLC; 1.41 µM and 2.38 µM and 1.94 µM with SNB-75 CNS. Further, the TGI with U251 CNS was 12.9 µM and 5.25 µM and > 10 µM; in the test with CCRF-CEM leukemia, 18.6 µM and > 10 µM; in the test on NCI-H23 lung it was 26.8 µM and 12.8 µM and > 10 µM; in the test on SK-MEL-5 melanoma, 18.2 µM and 3.31 µM and > 10 µM; in the test on 786-0 renal it was 15.8 µM and 3.29 µM and > 10 µM; with UO-31 renal, 18.3 µM and 4.57 µM and > 10 µM. The TGI in the test on MDA-MB-435 is 27.7 µM and 21.2 µM and > 10 µM; in the test with SF-539 CNS, 15.4 µM and 1.65 µM and > 10 µM; in the test on EKVX NSCLC it was 34.9 µM and 21.6 µM and > 10 µM; with SNB-75 CNS, 6.52 µM and 19.1 µM and > 10 µM.
`COc1ccc(C2CC(c3ccc(Nc4ccnc5cc(Cl)ccc45)cc3)=NN2C=O)cc1` (stereo not drawn): the GI50 with U251 CNS was 15 µM; in the test with CCRF-CEM leukemia, 2.71 µM; with NCI-H23 lung, 50.6 µM; in the test with SK-MEL-5 melanoma, 0.617 µM; with 786-0 renal, 32 µM; with UO-31 renal it was 19.7 µM. Further, the GI50 in the test on MDA-MB-435 is 1.72 µM; in the test on SF-539 CNS, above 100 µM; in the test on EKVX NSCLC, above 100 µM; in the test with SNB-75 CNS it was above 100 µM. Further, the total growth inhibition concentration (TGI) in the test with U251 CNS was above 100 µM; with CCRF-CEM leukemia, above 100 µM; in the test on NCI-H23 lung, above 100 µM; in the test on SK-MEL-5 melanoma it was 43.2 µM; with 786-0 renal it was above 100 µM; in the test on UO-31 renal, above 100 µM. The TGI in the test with MDA-MB-435 is 5.22 µM; in the test with SF-539 CNS, above 100 µM; with EKVX NSCLC, above 100 µM; with SNB-75 CNS, above 100 µM.
In the case of `O=C(NCCCl)Nc1cccnc1`, the TGI with U251 CNS is above 100 µM; in the test with CCRF-CEM leukemia, above 100 µM; in the test with NCI-H23 lung, 46.2 µM; in the test with SK-MEL-5 melanoma, above 100 µM; with 786-0 renal it was 39.9 µM; in the test with UO-31 renal, 50.3 µM. Further, the TGI is above 100 µM in the test with MDA-MB-435, above 100 µM with SF-539 CNS, 38.3 µM in the test on EKVX NSCLC and 63.1 µM in the test with SNB-75 CNS.
Take `O=C(O)c1cc(=O)cc(C(=O)O)o1`: the GI50 in the test on U251 CNS, in the test on CCRF-CEM leukemia, with NCI-H23 lung, in the test on SK-MEL-5 melanoma, in the test on 786-0 renal and with UO-31 renal was above 100 µM throughout. The GI50 in the test with MDA-MB-435, in the test on SF-539 CNS, in the test on EKVX NSCLC and with SNB-75 CNS was above 100 µM throughout. Besides, the TGI in the test on U251 CNS, with CCRF-CEM leukemia, with NCI-H23 lung, in the test with SK-MEL-5 melanoma, with 786-0 renal and in the test on UO-31 renal was above 100 µM throughout. The TGI in the test on MDA-MB-435, in the test on SF-539 CNS, with EKVX NSCLC and with SNB-75 CNS was above 100 µM each time.
As to `CC1(C)N=C(N)N=C(N)N1c1ccc(Cl)cc1`, the GI50 in the test with U251 CNS is 1.19 µM; in the test with CCRF-CEM leukemia, above 100 µM; in the test with NCI-H23 lung it was 2.51 µM; in the test on SK-MEL-5 melanoma, 3.99 µM; with 786-0 renal it was 0.414 µM; in the test with UO-31 renal, above 100 µM. Moreover, the GI50 is 1.18 µM in the test with MDA-MB-435, 1.94 µM with SF-539 CNS, 0.763 µM in the test with EKVX NSCLC and 8.16 µM with SNB-75 CNS. Moreover, the TGI with U251 CNS, in the test with CCRF-CEM leukemia, in the test with NCI-H23 lung, in the test on SK-MEL-5 melanoma, in the test with 786-0 renal and with UO-31 renal was above 100 µM each time. Further, the TGI in the test on MDA-MB-435, in the test with SF-539 CNS, in the test with EKVX NSCLC and with SNB-75 CNS was above 100 µM in each case.
In the case of `NC(=S)N/N=C1\c2ccccc2-c2c(F)c(F)c(F)c(F)c21`, the GI50 in the test on U251 CNS was 3.16 µM; with CCRF-CEM leukemia, 1.09 µM; in the test on NCI-H23 lung, 9.79 µM; in the test with SK-MEL-5 melanoma, 17.1 µM; in the test with 786-0 renal, 6.56 µM; in the test with UO-31 renal, 4.31 µM. Moreover, the GI50 in the test on MDA-MB-435 was 7.44 µM; in the test on SF-539 CNS it was 5.39 µM; with EKVX NSCLC it was 25.4 µM; in the test on SNB-75 CNS it was 6.36 µM. Also, the TGI is 10.2 µM in the test with U251 CNS; 3.95 µM with CCRF-CEM leukemia; 25 µM in the test with NCI-H23 lung; above 50.4 µM in the test on SK-MEL-5 melanoma; 20 µM in the test on 786-0 renal; 9.03 µM in the test on UO-31 renal. Also, the TGI is 20.6 µM with MDA-MB-435, 12.8 µM in the test on SF-539 CNS, above 100 µM in the test with EKVX NSCLC and 21.6 µM with SNB-75 CNS.
Consider `Cn1c(=O)nc2n(-c3ccc(Cl)cc3)c3cc(Cl)ccc3nc-2c1=O`, for which the TGI in the test with U251 CNS amounted to 33 µM; in the test with CCRF-CEM leukemia, 33.2 µM; in the test on NCI-H23 lung, 6.06 µM; in the test with SK-MEL-5 melanoma, 3.07 µM; in the test on 786-0 renal, 23.7 µM; in the test with UO-31 renal, 24.2 µM. For the same compound, the TGI in the test with MDA-MB-435 was found to be 3.14 µM; in the test with SF-539 CNS, 30.4 µM; in the test with EKVX NSCLC, 17.7 µM; in the test with SNB-75 CNS it was 14.8 µM.
`O=C(COc1cccc(/C=C2\CSc3ccc(Cl)cc3C2=O)c1)c1ccc(Cl)cc1`: the GI50 in the test on U251 CNS is 2.32 µM; in the test with CCRF-CEM leukemia, 1.66 µM; in the test with NCI-H23 lung, 12.9 µM; with SK-MEL-5 melanoma it was 5.33 µM; with 786-0 renal, 14.5 µM; in the test with UO-31 renal, 12 µM. Further, the GI50 in the test with MDA-MB-435 is 2.29 µM; in the test on SF-539 CNS, 16.8 µM; in the test with EKVX NSCLC, 10.6 µM; with SNB-75 CNS, 14 µM. The TGI stood at 5.44 µM in the test on U251 CNS; 4.22 µM in the test on CCRF-CEM leukemia; 42.5 µM with NCI-H23 lung; 19.6 µM with SK-MEL-5 melanoma; 29.5 µM in the test with 786-0 renal; 27.2 µM in the test on UO-31 renal. In addition, the TGI in the test on MDA-MB-435 worked out at 8.09 µM; in the test on SF-539 CNS it was 31.2 µM; with EKVX NSCLC, 38 µM; in the test on SNB-75 CNS, 37.8 µM.
On to `Oc1c(Cl)cc(Cl)cc1/C=N/Nc1nnc(N/N=C/c2cc(Cl)cc(Cl)c2O)c2ccccc12`, for which the GI50 in the test with U251 CNS was 0.345 µM; in the test with CCRF-CEM leukemia it was 0.275 µM; with NCI-H23 lung it was 0.406 µM; with SK-MEL-5 melanoma, 0.505 µM; in the test on 786-0 renal, 0.418 µM; in the test on UO-31 renal, 0.43 µM. Besides, the GI50 in the test on MDA-MB-435 was 0.484 µM; in the test with SF-539 CNS, 0.258 µM; with EKVX NSCLC, 0.429 µM; in the test with SNB-75 CNS it was 0.867 µM. In addition, the TGI in the test with U251 CNS is above 52.6 µM; in the test on NCI-H23 lung it was above 100 µM; with SK-MEL-5 melanoma, 2.2 µM; in the test with 786-0 renal, above 100 µM; in the test on UO-31 renal, above 100 µM; in the test on MDA-MB-435 it was above 30.9 µM. The TGI was 0.64 µM in the test with SF-539 CNS, above 100 µM in the test with EKVX NSCLC and above 31.1 µM in the test on SNB-75 CNS.

As usually defined, the GI50 is the concentration giving 50% growth inhibition. One may read the TGI as the concentration giving total growth inhibition. Lower therefore signals greater sensitivity of the cells.
